The record followed here is patent US20090304766A1, “LOCALIZED DELIVERY OF DRUG COMBINATIONS” (priority 2005, published 2009).

The nature of this test: in vitro combination dose-effect analysis (cytotoxicity, Chou-Talalay combination index). Type of test: cell-based. Particulars: FIG. 2D; single agent compared with combination.

Molecules are shown by their SMILES.

Description: By way of illustration, individual agents and various combinations thereof are tested for their biological effect on cell culture or a cell-free system, for example causing cell death or inhibiting cell growth, at various concentration levels. The concentration levels of the preset ratios are plotted against the percentage cell survival to obtain a correlation which can be manipulated by known and established mathematical techniques to calculate a “combination index” (CI). The mathematics are such that a CI of 1 (i.e., 0.9-1.1) describes an additive effect of the drugs; a CI>1 (i.e., >1.1) represents an antagonist effect; and a CI of <1 (i.e., <0.9) represents a synergistic effect.
As shown, agents A and B are tested individually and together at two different ratios for their ability to cause cell death or cell stasis as assessed by the MTT assay described below. Initially, correlations between the concentration of drugs A, B, and the two different combination ratios (Y:Z and X:Y) are plotted against cytotoxicity, calculated as a percentage based on the survival of untreated control cells. […] Once this correlation has been established, the cell survival or fraction affected (fa) can be used as a surrogate for concentration in calculating the CI. […]

Turning to `N.N.O=C([O-])C1(C(=O)[O-])CCC1.[Pt+2]` [carboplatin], the “concentration required to achieve a 90% cell kill on its own versus when combined at a non-antagonistic ratio” value is “significantly higher”. As for `CCc1c2c(nc3ccc(OC(=O)N4CCC(N5CCCCC5)CC4)cc13)-c1cc3c(c(=O)n1C2)COC(=O)[C@]3(O)CC` [irinotecan], the “concentration required to achieve a 90% cell kill on its own versus when combined at a non-antagonistic ratio” value was “significantly higher”.
